Results taken from patent US20120276064A1, “METHODS AND COMPOSITIONS FOR REJUVENATION AND EXPANSION OF STEM CELLS” (priority 2011, published 2012).

Tested on: MuSCs transplanted into tibialis anterior muscle
Assay: Transplantation of cultured MuSCs into irradiated NOD/SCID mice, engraftment by bioluminescence imaging
Format: in vivo, mouse
Conditions: young MuSCs cultured one week on soft hydrogel with 10 μM; 100 cells transplanted; one month
Procedure: MuSC transplantation. MuSCs were transplanted immediately following FACS isolation or after collection from cell culture directly into the tibialis anterior muscle of recipient mice as previously described. Cells from GFP/Luciferase or Myf5^nLacZl+/Luciferase mice were transplanted into gender-matched, hindlimb-irradiated NOD/SCID (Jackson) mice. NOD/SCID (2-4 months of age, median 2 months) mice were anesthetized with ketamine (2.4 mg per mouse) and xylazine (240 μg per mouse) by intraperitoneal injection then were irradiated by a single dose of 18 Gy administered to the hindlimbs, with the rest of the body shielded in a lead jig. Transplantation was performed within three days post-irradiation. In syngeneic transplant studies, cells from old C57BL/6 mice were transplanted into gender-matched, littermate old C57BL/6 mice (Jackson) following culture for one week on soft hydrogels. Specifically, old C57BL/6 MuSCs were infected with a GFP/Luciferase lentivirus added at day 2 of culture for 24 hours. Recipient old C57BL/6 mice were acutely injured by a single 10 μl intramuscular injection of notexin (10 μg/ml; Latoxan, France) two days prior to cell transplantation, but were not irradiated. Freshly isolated or cultured cells were counted by hemocytometer and resuspended at desired cell concentrations in PBS with 2.5% goat serum and 1 mM EDTA. Cells were collected from hydrogel cultures by incubation with 0.5% trypsin in PBS for 2 min at 37° C. and counted using a hemocytometer. Cells were transplanted by intramuscular injection into the tibialis anterior muscle in a 10 μl volume.
Tissue histology. Recipient tibialis anterior muscle tissues were prepared for histology as previously described to analyze GFP expression. Transverse sections were incubated with anti-laminin (Millipore, Billerica, Calif.), anti-GFP (Invitrogen) antibodies, and/or anti-β-galactosidase (Abcam, Cambridge, Mass.) with appropriate secondary antibodies (Invitrogen). Nuclei were counter-stained with Hoechst 33342 (Invitrogen). Images were acquired with an AxioPlan2 epi-fluorescent microscope (Carl Zeiss Microimaging, Thornwood, N.Y.) with Plan NeoFluar 10×/0.30NA or 20×/0.75NA objectives (Carl Zeiss) and an ORCA-ER digital camera (Hamamatsu Photonics, Bridgewater, N.J.). Digital images were captured in OpenLab software (Improvision, Waltham, Mass.) and assembled in Photoshop software (Adobe, San Jose, Calif.) with consistent contrast adjustments across all images from the same stain.
Bioluminescence imaging. Bioluminescence imaging was performed using a Xenogen-100 system, as previously described. Briefly, mice were anesthetized under isofluorane and 100 μL luciferin (0.1 mmol/kg; Caliper LifeSciences, Hopkinton, Mass.) in PBS was administered by intraperitoneal injection. Following luciferin administration, images were acquired every minute for 15 min. Images acquired at 12 min post-luciferin injection were used for analysis. Digital images were recorded and analyzed using Living Image software (Caliper LifeSciences). Images were analyzed with a consistent region-of-interest (ROI) placed over each hindlimb to calculate a bioluminescence signal. A bioluminescence signal value of 80,000 photons/s was used to define a engraftment threshold, as this level corresponds to the histological detection of one or more GFP^+ myofiber (see FIG. 8A). BLI imaging was performed one month post-transplant unless otherwise stated.
MuSC culture and treatment. Following isolation, MuSCs were pelleted and resuspended into myogenic cell culture medium containing DMEM/F10 (50:50), 15% FBS, 2.5 ng/ml bFGF, and 1% penicillin/streptomycin. MuSCs were seeded at 1000 cells per well (24-well plate size wells, 2.0 cm^2 surface area) on laminin-tethered hydrogels of either 12 kPa (soft) or ˜10^6 kPa (rigid) rigidities. Cells were maintained at 37° C. in 5% CO2. Media was changed daily. […]

C[S+]([O-])c1ccc(-c2nc(-c3ccncc3)c(-c3ccc(F)cc3)[nH]2)cc1 (stereo not shown) [SB203580]
Transplant engraftment efficiency (in words): improves the transplant engraftment efficiency
